Reference: patent US9884860B2, “Fused pyrroledicarboxamides and their use as pharmaceuticals” (SANOFI, priority 2012, dated 2018)

Molecular target: Human TASK-1 channels (Homo sapiens (Human), UniProt O14649)
Assay: Determination of the activity on the TASK-1 channel in Xenopus oocytes (two-microelectrode voltage clamp)
Format: cell-based
Settings: for IC50: human TASK-1 expressed in Xenopus oocytes, room temperature, read-out: IC50 value for TASK-1 inhibition
Protocol: Determination of the activity on the TASK-1 channel in Xenopus oocytes
Human TASK-1 channels were expressed in Xenopus oocytes. For this purpose, oocytes were isolated from Xenopus laevis and defoliculated. Subsequently, TASK-1-encoding RNA synthesized in vitro was injected into the oocytes. After two days of TASK-1 protein expression, TASK-1 currents were measured by two-microelectrode voltage clamp. Data were acquired and analyzed using a TEC-10cx amplifier (NPI Electronic, Tamm, Germany) connected to an ITC-16 interface (Instrutech Corp., Long island, USA) and Pulse software (HEKA Elektronik, Lambrecht, Germany). Oocytes were clamped to −90 mV and TASK-1 mediated currents were measured during 500 ms voltage pulses to 40 mV. Oocytes were continuously superfused with ND96 buffer containing 98 mM sodium chloride, 2 mM potassium chloride, 1.8 mM calcium chloride, 1 mM magnesium chloride, 5 mM 4-(2-hydroxyethyl)-piperazine-1-ethanesulfonic acid (HEPES: pH adjusted to 7.4 with sodium hydroxide). All experiments were performed at room temperature. Test compounds were consecutively added to the bath solution at rising concentrations. Compound effects were calculated as the percentage inhibition of TASK-1 control current before compound addition. IC50 values were obtained by fitting the data to the general dose-response equation.

Chain of Human TASK-1 channels (O14649 whole entry): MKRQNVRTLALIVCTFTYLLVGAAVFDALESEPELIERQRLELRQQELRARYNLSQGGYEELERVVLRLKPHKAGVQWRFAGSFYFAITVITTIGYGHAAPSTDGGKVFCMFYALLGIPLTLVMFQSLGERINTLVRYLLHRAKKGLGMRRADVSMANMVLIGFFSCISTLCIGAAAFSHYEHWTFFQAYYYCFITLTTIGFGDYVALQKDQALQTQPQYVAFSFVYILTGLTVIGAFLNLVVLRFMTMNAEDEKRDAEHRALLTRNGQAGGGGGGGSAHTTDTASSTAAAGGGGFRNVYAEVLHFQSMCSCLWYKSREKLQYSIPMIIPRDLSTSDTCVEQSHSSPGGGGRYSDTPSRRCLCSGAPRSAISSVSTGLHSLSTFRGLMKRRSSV

Row | Molecule | IC50 [nM] | inhibition at 5 µM (compound concentration 5 μM) [%]
1 | 3,4-Dihydro-1H-pyrrolo[2,1-c][1,4]oxazine-6,8-dicarboxylic acid 8-[((R)- 1-phenyl-propyl)-amide] 6-{[(R)-1-(5-trifiuoromethyl-pyridin-3-yl)- propyl]-amide} [16hn] | 690 | 
2 | 3,4-Dihydro-1H-pyrrolo[2,1-c][1,4]oxazine-6,8-dicarboxylic acid 8-{[(R)- 1-(6-rnethoxy-pyridin-3-yl)-propy]-amide} 6-[((R)-1-phenyl-propyl)- amide] [16jo] | 250 | 
3 | 5,6,7,8-Tetrahydro-indolizine-1,3-dicarboxylic acid 3-[(3,5-dimethyl- isoxazol-4-yl)-amide] 1-[((R)-1-phenyl-propyl)-amide] [16nd] | 210 | 
4 | CC[C@@H](NC(=O)c1cc(C(=O)NC(C)c2cnccn2)n2c1COCC2)c1ccccc1 (single isomer, unassigned; diastereomer 1) [16if] | 1100 | 
5 | CC[C@@H](NC(=O)c1cc(C(=O)NC(C)c2cnccn2)c2n1CCOC2)c1ccccc1 (single isomer, unassigned; diastereomer 1) [16jw] | 2860 | 
6 | CC(NC(=O)c1cc(C(=O)N[C@@H](c2ccc(F)cc2)C(C)C)n2c1COCC2)c1cnccn1 (single isomer, unassigned; diastereomer 1) [16lq] | 700 | 
7 | CC[C@@H](NC(=O)c1cc(C(=O)NC(C)c2cnccn2)c2n1CCOC2)c1ccc(F)cc1F (single isomer, unassigned; diastereomer 1) [16pl] | 430 | 
8 | CCC(NC(=O)c1cc(C(=O)N2CCC[C@@H]2C)n2c1COCC2)c1ncc(C(F)(F)F)s1 (single isomer, unassigned; diastereomer 2) [16ce] | 280 | 
9 | CCC(NC(=O)c1cc(C(=O)N[C@H](CC)c2ccccc2)c2n1CCOC2)c1cnc(OC)nc1 (single isomer, unassigned; diastereomer 2) [16hv] | 760 | 
10 | CCC(NC(=O)c1cc(C(=O)N2CCC[C@@H]2C)n2c1COCC2)c1ccc(S(F)(F)(F)(F)F)cc1 (some centres unmarked) [16bf] | 740 | 
11 | CC[C@@H](NC(=O)c1cc(C(=O)N2CCC[C@@H]2C)n2c1COCC2)c1ccc2c(c1)OC(F)(F)O2 [16bz, 6-((S)-2-Methyl-pyrrolidine-1-carbonyl)-3,4-dihydro-1H-pyrrolo[2,1-c][1,4]oxazine-8-carboxylic acid [(R)-1-(2,2-difluoro-benzo[1,3]dioxol-5-yl)-propyl]-amide] | 200 | 
12 | CC[C@H](NC(=O)c1cc(C(=O)N[C@H](C)c2ccc(F)cc2)n2c1COCC2)c1cnc(OC)cn1 [16dv, 3,4-Dihydro-1H-pyrrolo[2,1-c][1,4]oxazine-6,8-dicarboxylic acid 6-{[(R)-1-(4-fluoro-phenyl)-ethyl]-amide} 8-{[(S)-1-(5-methoxy-pyrazin-2-yl)-propyl]-amide}] | 190 | 
13 | CC[C@@H](NC(=O)c1cc(C(=O)NCc2ccc3cc[nH]c3c2)n2c1COCC2)c1ccccc1 [16je, 3,4-Dihydro-1H-pyrrolo[2,1-c][1,4]oxazine-6,8-dicarboxylic acid 6-[(1H-indol-6-ylmethyl)-amide] 8-[((R)-1-phenyl-propyl)-amide]] |  | 91
14 | CC[C@@H](NC(=O)c1cc(C(=O)NCc2cncc(F)c2)n2c1CCCC2)c1ccccc1 [16nb, 5,6,7,8-Tetrahydro-indolizine-1,3-dicarboxylic acid 3-[(5-fluoro-pyridin-3-ylmethyl)-amide] 1-[((R)-1-phenyl-propyl)-amide]] | 460 | 
